US20230101069A1, “AGENTS FOR USE IN THE TREATMENT OF TISSUE DAMAGE 2” (UCL BUSINESS LTD, priority 2020, published 2023)

target: T1, CRP (Homo sapiens, UniProt P02741); experiment: not given; conditions: rats undergoing coronary artery ligation and receiving human CRP; cited from earlier work
T1 sequence (P02741 19-224): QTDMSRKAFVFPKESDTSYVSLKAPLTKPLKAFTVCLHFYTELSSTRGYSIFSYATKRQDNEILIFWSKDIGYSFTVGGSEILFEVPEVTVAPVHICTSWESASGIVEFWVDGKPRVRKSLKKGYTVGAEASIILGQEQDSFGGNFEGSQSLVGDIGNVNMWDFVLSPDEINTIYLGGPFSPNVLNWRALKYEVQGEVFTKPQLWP

SMILES	increased damage caused by human CRP after coronary artery ligation
C[N+](C)(C)CCOP(=O)([O-])OCCCCCCOP(=O)([O-])OCC[N+](C)(C)C [BPC6, bis(phosphocholine)hexane]	completely abrogated the increased damage

target: T1, CRP; experiment: inhibition of CRP binding in vitro; conditions: Pepys, unpublished observations

SMILES	potency as inhibitor of CRP binding in vitro, compared with BPC6
C[N+](C)(C)CCOP(=O)(O)OCCCCCCCCOP(=O)(O)OCC[N+](C)(C)C [Example 12, bis(phosphocholine)octane]	more potent inhibitor of CRP binding in vitro

target: T1, CRP; experiment: MIRA immunoturbidimetric assay (inhibition of CRP recognition, COBAS MIRA autoanalyser); format: binding; set-up: The final concentrations were 0.73 μM native pentameric CRP; from tissue; conditions: 0.73 μM native pentameric CRP, TC buffer, 1 h at room temperature; read-out: IC50
Source text: The CRP immunoturbidimetric assay on the Roche COBAS MIRA Plus autoanalyser, utilises two different sized latex particles that are covalently coupled with two different monoclonal antibodies with specificity for different CRP epitopes (5). The assay was validated by Roche for measurement of native pentameric CRP, for which it has high sensitivity and specificity and a high upper detection limit; it was calibrated against a standard produced in our laboratory. Serendipitously, one of the assay's antibodies binds to an epitope present on the ligand binding B face of CRP. Thus, when the binding pocket is occupied by ligand or is occluded, for example by B face to B face complexing of pentamers, the assay fails to detect CRP although it is demonstrable by other types of assays that employ antibodies which bind to different epitopes. Bivalent compounds such as BPC8 and APL-2191 were designed to crosslink pairs of CRP pentamers. Therefore, inhibition of CRP recognition in the MIRA assay is a convenient tool to monitor the efficacy and potency of complex formation between such ligands and CRP (6).
CRP concentrations were measured in the presence and absence of ligands by the COBAS MIRA autoanalyser. Concentrated Tris-calcium buffer (×10 TC) was prepared in MilliQ water from trishydroxymethyamine (100 mM), calcium chloride (20 mM) and sodium chloride (1.4 M). The pH was adjusted to 8.0 using HCl and sodium azide was added (0.1% w/v); the buffer was stored at 4° C. A tenfold diluted working buffer (TC) was prepared by dilution 100 ml of the ×10 concentrated buffer with 900 ml of MilliQ water. Human CRP was isolated, purified and characterised as previously reported (6-9) and stored frozen at −80° C. When required, stock CRP was thawed at 37° C. and working dilutions prepared that were kept at 4° C. for the duration of an experiment. CRP concentration was determined spectrophotometrically (Beckman Coulter DU 650) in quartz cuvettes with a 1 cm light path, by measuring […] after correction for absorbance at 320 nm (light scattering) and using the measured absorption coefficient A (1%, 1 cm)=17.5 for human CRP (10). Human CRP at ˜90 μg/ml (0.78 μM of pentamer) in TC buffer was prepared from a stock solution; a 75 μl aliquot was used in the assay. Compounds were supplied by Wuxi AppTec (Wuhan, China) as solids. They were dissolved in TC buffer at suitable concentrations, depending on solubility, of up to 10 mM (labelled S1). They were then serially diluted 1:2 with TC buffer (100 μl ligand+200 μl TC) to provide up to 9 dilutions, S2-S10. A TC buffer control (50) was included in each assay. A 15 μl volume of each ligand solution was incubated with 75 μl of CRP for 1 h at room temperature. The final concentrations were 0.73 μM native pentameric CRP, ligands S1-S10=625-0.03 μM, corresponding to ligand:CRPr ratios of 850-0.04. Where compounds were of reduced solubility in TC buffer, lower stock concentrations were used (from 0.6 mM), corresponding to final top assay concentrations of 100 μM.
Data are expressed as measured CRP (mg/L) against final total ligand concentration (μM) and were plotted using Sigmaplot (V14) using the 4 parameter logistic curve y=min+(max−min)/(1+(x/EC50)[…]) to calculate EC50. Where appropriate, samples were also measured in whole normal human serum following the addition of a known amount of human CRP. All compounds were assayed in comparison with a highly purified preparation of bis(phosphocholine)octane (BPC8), that was prepared by Carbogen AMCIS AG and diluted into sterile water at 10 mM concentration. It was stored at −80° C. The solution was diluted into TC buffer as required.

SMILES	IC50 [µM]
O=C(N[C@@H](C(=O)O)[C@H]1CN2CCC1CC2)c1ccc2cc(C(=O)N[C@@H](C(=O)O)[C@H]3CN4CCC3CC4)ccc2c1 [Example 7, (R,2R,2′R)-2,2′-((naphthalene-2,6-dicarbonyl)bis(azanediyl))bis(2-((R)-quinuclidin-3-yl)acetic acid)]	0.51
O=C(N[C@@H](C(=O)O)[C@H]1CN2CCC1CC2)c1cc(OCc2ccccc2)c(C(=O)N[C@@H](C(=O)O)[C@H]2CN3CCC2CC3)cc1OCc1ccccc1 [Example 10]	0.67
C[N+](C)(C)CCOP(=O)(O)OCCCCCCCCOP(=O)(O)OCC[N+](C)(C)C [Example 12, bis(phosphocholine)octane]	1.2
Cc1cc(C(=O)N[C@@H](C(=O)O)[C@H]2CN3CCC2CC3)ccc1-c1ccc(C(=O)N[C@@H](C(=O)O)[C@H]2CN3CCC2CC3)cc1 [Example 6, (R)-2-(4′-(((R)-carboxy((R)-quinuclidin-3-yl)methyl)carbamoyl)-2′-methyl-[1,1′-biphenyl]-4-ylcarboxamido)-2-((R)-quinuclidin-3-yl)acetic acid]	0.56
O=C(N[C@@H](C(=O)O)[C@H]1CN2CCC1CC2)c1ccc(C(=O)N[C@@H](C(=O)O)[C@H]2CN3CCC2CC3)nc1 [Example 2, (R,2R,2′R)-2,2′-((pyridine-2,5-dicarbonyl)bis(azanediyl))bis(2-((R)-quinuclidinyl)acetic acid)]	0.65
O=C(N[C@@H](C(=O)O)C1CN2CCC1CC2)c1ccc(C(=O)N[C@@H](C(=O)O)C2CN3CCC2CC3)cc1 (stereo partly drawn) [Example 1, (R,2R,2′R)-2,2′-(terephthaloylbis(azanediyl))bis(2-((R)-quinuclidin-3-yl)acetic acid)]	0.6
Cc1cc(C(=O)N[C@@H](C(=O)O)[C@H]2CN3CCC2CC3)ccc1C(=O)N[C@@H](C(=O)O)[C@H]1CN2CCC1CC2 [Example 9]	0.55
O=C(N[C@@H](C(=O)O)[C@H]1CN2CCC1CC2)c1cccc(C(=O)N[C@@H](C(=O)O)[C@H]2CN3CCC2CC3)c1 [Example 11, 2-[[3-[[carboxy-1(3R)-quinuclidin-3-yl]methyl]carbamoyl]benzoylamino]-2-[(3R)-quinuclidin-3-yl]acetic acid]	2.02
O=C(N[C@@H](C(=O)O)[C@H]1CN2CCC1CC2)c1ccc(-c2ccc(C(=O)N[C@@H](C(=O)O)[C@H]3CN4CCC3CC4)cc2)cc1 [Example 5, (R)-2-(4′-(((R)-carboxy((R)-quinuclidin-3-yl)methyl)carbamoyl)-[1,1′-biphenyl]-4-ylcarboxamido)-2-((R)-quinuclidin-3-yl)acetic acid]	0.73
Cc1cc(C(=O)N[C@@H](C(=O)O)[C@H]2CN3CCC2CC3)c(C)cc1C(=O)N[C@@H](C(=O)O)[C@H]1CN2CCC1CC2 [Example 8]	0.59
O=C(N[C@@H](C(=O)O)[C@H]1CN2CCC1CC2)c1cnc(C(=O)N[C@@H](C(=O)O)[C@H]2CN3CCC2CC3)cn1 [Example 3, (R,2R,2′R)-2,2′-((pyrazine-2,5-dicarbonyl)bis(azanediyl))bis(2-((R)-quinuclidinyl)acetic acid)]	1.22
O=C(N[C@@H](C(=O)O)[C@H]1CN2CCC1CC2)c1ccc(C(=O)N[C@@H](C(=O)O)[C@H]2CN3CCC2CC3)nn1 [Example 4, (R,2R,2′R)-2,2′-((pyridazine-3,6-dicarbonyl)bis(azanediyl))bis(2-((R)-quinuclidin-3-yl)acetic acid)]	0.58

same assay, conditions: alternative stereoisomers of the formula (I) structure; read-out: IC50 of alternative stereoisomers (QA,QA: Quinuclidine, Amino Acid)

SMILES	IC50 [µM]
O=C(NC(C(=O)O)C1CN2CCC1CC2)c1ccc(C(=O)NC(C(=O)O)C2CN3CCC2CC3)cc1 (single isomer, unassigned) [RS,RR]	> 1000
O=C(NC(C(=O)O)C1CN2CCC1CC2)c1ccc(C(=O)NC(C(=O)O)C2CN3CCC2CC3)cc1 (single isomer, unassigned) [SS,SS]	34.4
O=C(NC(C(=O)O)C1CN2CCC1CC2)c1ccc(C(=O)NC(C(=O)O)C2CN3CCC2CC3)cc1 (single isomer, unassigned) [RS,RS]	> 1000
O=C(NC(C(=O)O)C1CN2CCC1CC2)c1ccc(C(=O)NC(C(=O)O)C2CN3CCC2CC3)cc1 (single isomer, unassigned) [SR,SR]	> 1000

target: T1, CRP; experiment: rat acute myocardial infarction model (coronary artery ligation) with administered human CRP; format: in vivo; conditions: ischaemia reperfusion design and terminal coronary artery ligation, Pepys, unpublished observations
Source text: Human CRP and activated rat complement were deposited in and around the infarct and the exacerbation of tissue damage was absolutely complement dependent. Similar observations were made in the middle cerebral artery occlusion model of stroke in rats (3).
The design of the first small molecule inhibitor of CRP binding for use in vivo, bis(phosphocholine)hexane (BPC6), enabled conclusive confirmation of the pathogenic role of human CRP in exacerbating tissue damage after ischaemic infarction (2).
BPC6 and BPC8 are avidly bound by CRP, cross linking pairs of the native pentameric protein molecules. […] However, the bis(phosphocholine)alkane series of compounds were difficult to synthesise and purify at scale.

SMILES	protective effect against human CRP pathogenicity
C[N+](C)(C)CCOP(=O)(O)OCCCCCCCCOP(=O)(O)OCC[N+](C)(C)C [Example 12, bis(phosphocholine)octane]	same protective effect
